{"source": "patent US9661856B1", "about": "“Synergy of plant antimicrobials with silver” (The Arizona Board of Regents on behalf of the University of …, priority 2012, dated 2017)", "key": {"[1]": {"tested_on": "Escherichia coli strain 25922", "test": "Reduction of Escherichia coli in PBS after exposure to plant antimicrobials with and without silver (spread plate count)", "type": "cell-based", "conditions": "for reduction with silver alone treatment (in words): 100 ppb silver alone, within 30 min of exposure; for effect of combination with silver ions on antimicrobial activity against E. coli: plant antimicrobial combined with silver ions in solution", "protocol": "Escherichia coli strain 25922 was obtained from the American Type Culture Collection (ATCC; Manassas, Va., USA) and was maintained on Tryptic Soy Agar (TSA; Difco, Sparks, Md., USA) with incubation for 18 to 24 h at 37° C. Prior to the start of each experiment, an Erlenmeyer flask containing 100 ml of Tryptic Soy Broth (TSB; Difco, Sparks, Md., USA) was inoculated with the organism and incubated on an orbital shaker (Model […]; New Brunswick Scientific, Edison, N.J., USA) at 300 rpm at 37° C. overnight. […] Beckman Coulter, Inc., Fullerton, Calif., USA). The pelleted cells were washed by re-suspension in 100 ml of physiological saline (0.85% NaCl) followed by centrifugation as described previously. This step was repeated one additional time. The final pellet was resuspended in 10 ml of sterile phosphate buffered saline (PBS; pH 7.4; Sigma-Aldrich, St. Louis, Mo., USA). […] A stock solution of silver (Ag) ions was prepared immediately prior to the start of each experiment by adding AgNO3 (J.T. Baker, Phillipsburg, N.Y., USA) to distilled water to obtain an Ag ion concentration of 100 mg/l (100 ppm). The Ag concentration was measured at the beginning of each experiment by a colorimetric procedure using a Hach DR/2000 spectrophotometer (Anonymous 1989). […] (Berkley, Calif., USA). […] Louis, Mo., USA). The plant antimicrobials were dissolved and diluted (volume to volume) to specific test concentrations using PBS. […] A control with E. coli in PBS but no added antimicrobials was also included. Purified stocks of the bacteria were added separately to the antimicrobial solutions (final concentration of […]) and the flasks were placed on an orbital shaker (300 rpm) for the duration of the experiment. Experiments were performed in triplicate at room temperature (24° C.) in 50 ml polypropylene conical tubes (Becton, Dickinson and Company, Franklin Lakes, N.J., USA). At predetermined time intervals, 100 μl samples were collected and neutralized with Dey Engley (D/E) neutralizing broth (Difco, Sparks, Md., USA) at a ratio of 1:10. The D/E is neutralizes the antimicrobial effect of silver whereas the plant antimicrobials are neutralized via dilution. Samples were assayed for bacterial enumeration immediately. Bacterial samples were ten-fold serially diluted in physiological saline as needed and the surviving bacteria were enumerated using the spread plate method on duplicate plates of Levine Eosin Methylene Blue Agar (EMB; Becton, Dickinson and Company, Franklin Lakes, N.J., USA). The plates were incubated at 37° C. for 24 hours and the surviving bacterial colonies were counted. Data were reported as logarithmic reduction using the formula […], where N0 was the concentration of E. coli at time zero and Nt was the surviving concentration at time t. A Student's t-test was used to determine if there were significant differences between the control and the antimicrobial treatments (the reductions were compared to the control after 30 min) or between the various treatments (for each exposure time)."}, "[2]": {"conditions": "humans; based on epidemiological and pharmacokinetic data (WHO); cited from earlier work"}}, "data": [{"smiles": "[Ag+]", "note": "[Silver]", "values": [{"measurement": "reduction with silver alone treatment (in words)", "setting": "[1]", "value": "no reductions were observed"}, {"measurement": "reduction with silver alone treatment (in words)", "setting": "[1]; listed as Ag", "value": "No significant reductions"}, {"measurement": "Reduction (Log10 ± standard deviation) in the population of Escherichia coli", "setting": "[1]; Table 1, 30 min, 0.05% citral (vol/vol), silver 100 ppb, PBS, inoculum 1.7 × 10^7 CFU/ml", "value": "0.01 ± 0.04", "unit": "Log10"}, {"measurement": "Reduction (Log10 ± standard deviation) in the population of Escherichia coli", "setting": "[1]; Table 2, 5 min, 0.02% carvacrol (vol/vol), silver 100 ppb, PBS, inoculum 2.9 × 10^7 CFU/ml", "value": "0.08 ± 0.12", "unit": "Log10"}, {"measurement": "Reduction (Log10 ± standard deviation) in the population of Escherichia coli", "setting": "[1]; Table 2, 10 min, 0.02% carvacrol (vol/vol), silver 100 ppb, PBS, inoculum 2.9 × 10^7 CFU/ml", "value": "0.00 ± 0.06", "unit": "Log10"}, {"measurement": "Reduction (Log10 ± standard deviation) in the population of Escherichia coli", "setting": "[1]; Table 2, 30 min, 0.02% carvacrol (vol/vol), silver 100 ppb, PBS, inoculum 2.9 × 10^7 CFU/ml", "value": "0.00 ± 0.04", "unit": "Log10"}, {"measurement": "Reduction (Log10 ± standard deviation) in the population of Escherichia coli", "setting": "[1]; Table 3, 30 min, 0.1% cinnamaldehyde (vol/vol), silver 100 ppb, PBS, inoculum 2.1 × 10^7 CFU/ml", "value": "0.12 ± 0.10", "unit": "Log10"}, {"measurement": "Reduction (Log10 ± standard deviation) in the population of Escherichia coli", "setting": "[1]; Table 4, 1 min, 0.5% allspice oil (vol/vol), silver 100 ppb, PBS, inoculum 6.6 × 10^6 CFU/ml", "value": "0.00 ± 0.03", "unit": "Log10"}, {"measurement": "Reduction (Log10 ± standard deviation) in the population of Escherichia coli", "setting": "[1]; Table 4, 5 min, 0.5% allspice oil (vol/vol), silver 100 ppb, PBS, inoculum 6.6 × 10^6 CFU/ml", "value": "0.00 ± 0.08", "unit": "Log10"}, {"measurement": "Reduction (Log10 ± standard deviation) in the population of Escherichia coli", "setting": "[1]; Table 4, 10 min, 0.5% allspice oil (vol/vol), silver 100 ppb, PBS, inoculum 6.6 × 10^6 CFU/ml", "value": "0.00 ± 0.12", "unit": "Log10"}, {"measurement": "Reduction (Log10 ± standard deviation) in the population of Escherichia coli", "setting": "[1]; Table 4, 20 min, 0.5% allspice oil (vol/vol), silver 100 ppb, PBS, inoculum 6.6 × 10^6 CFU/ml", "value": "0.00 ± 0.23", "unit": "Log10"}, {"measurement": "Reduction (Log10 ± standard deviation) in the population of Escherichia coli", "setting": "[1]; Table 4, 30 min, 0.5% allspice oil (vol/vol), silver 100 ppb, PBS, inoculum 6.6 × 10^6 CFU/ml", "value": "0.29 ± 0.32", "unit": "Log10"}, {"measurement": "No Observable Adverse Effect Level (NOAEL), lifetime limit of silver", "setting": "[2]", "value": 10, "unit": "g"}]}, {"smiles": "Cc1ccc(C(C)C)cc1O", "note": "[Carvacrol, carvacrol]", "values": [{"measurement": "effect of combination with silver ions on antimicrobial activity against E. coli", "setting": "[1]", "value": "enhanced or synergistic"}]}, {"smiles": "O=C/C=C/c1ccccc1", "note": "[Cinnamaldehyde]", "values": [{"measurement": "exposure time within which the reduction was statistically significant (P≦0.05) compared to the control", "setting": "[1]; 0.05% citral, 0.02% carvacrol or 0.1% cinnamaldehyde, alone or with 100 ppb Ag, PBS", "value": "≤ 20", "unit": "min"}, {"measurement": "Reduction (Log10 ± standard deviation) in the population of Escherichia coli", "setting": "[1]; Table 3, 1 min, 0.1% cinnamaldehyde (vol/vol), silver 100 ppb, PBS, inoculum 2.1 × 10^7 CFU/ml", "value": "0.05 ± 0.04", "unit": "Log10"}, {"measurement": "Reduction (Log10 ± standard deviation) in the population of Escherichia coli", "setting": "[1]; Table 3, 5 min, 0.1% cinnamaldehyde (vol/vol), silver 100 ppb, PBS, inoculum 2.1 × 10^7 CFU/ml", "value": "0.18 ± 0.04", "unit": "Log10"}, {"measurement": "Reduction (Log10 ± standard deviation) in the population of Escherichia coli", "setting": "[1]; Table 3, 10 min, 0.1% cinnamaldehyde (vol/vol), silver 100 ppb, PBS, inoculum 2.1 × 10^7 CFU/ml", "value": "0.17 ± 0.07", "unit": "Log10"}, {"measurement": "Reduction (Log10 ± standard deviation) in the population of Escherichia coli", "setting": "[1]; Table 6, cinnamaldehyde 0.1% (vol/vol) in PBS, 1 min, inoculum 2.1 × 10^7 CFU/ml", "value": "0.05 ± 0.04", "unit": "Log10"}, {"measurement": "effect of combination with silver ions on antimicrobial activity against E. coli", "setting": "[1]", "value": "enhanced or synergistic"}]}, {"smiles": "CC(C)=CCCC(C)=CC=O", "note": "[Citral]", "values": [{"measurement": "Reduction (Log10 ± standard deviation) in the population of Escherichia coli", "setting": "[1]; Table 1, 1 min, 0.05% citral (vol/vol), silver 100 ppb, PBS, inoculum 1.7 × 10^7 CFU/ml", "value": "0.06 ± 0.03", "unit": "Log10"}, {"measurement": "effect of combination with silver ions on antimicrobial activity against E. coli", "setting": "[1]", "value": "enhanced or synergistic"}]}]}
